These results are taken from patent US7582646B2, “Pyrimidine derivatives for treatment of hyperproliferative disorders” (Bayer Pharmaceuticals Corporation, priority 2003, dated 2009).

Structures can show the parent of a compound that is named as a salt. Bounds are passed on as bounds.

The subject of the first series is HCT116 cells.
Assay: not given
Details: not given
As a reminder, the IC50 is the concentration needed to halve the response being measured. Turning to `N#CCc1ccc(-c2cc(Nc3cccc(Oc4ccnc(C(N)=O)c4)c3)nc(N)n2)cc1` [Example 294, 4-[3-({2-amino-6-[4-(cyanomethyl)phenyl]pyrimidin-4-yl}amino)phenoxy] pyridine-2-carboxamide], the IC50 fell in the range of 0.5 to 2 µM.

For another series, the system named is HCT116 cells. Nature of the series: HCT116 cytotoxic activity assay (Alamar Blue, 72 h). Particulars: Homo sapiens, HCT-116, read-out: IC50 in the HCT116 cytotoxic activity assay. In general terms: Resazurin is reduced to fluorescent resorufin, in cell work by metabolically active cells.
Experimental: Human tumor cells, e.g., HCT116 cells, are seeded in a 96-well plate at 3.0×10^3 cells/well and grown in 100 μl of RPMI complete media (Invitrogen Corporation, Grand Island, N.Y.) containing 10% fetal bovine serum (Hyclone, Logan, Utah) and 10 mM HEPES and at 37° C. for 16 h in an incubator with 5% CO2. To each well, 50 μl of additional growth media containing 20 μM to 60 nM concentrations of compound with 0.2% DMSO is added. Cells are grown for another 72 h at 37° C. 20 μl of Alamar Blue (Trek Diagnostic Systems, Inc., Cleveland, Ohio) reagent is added to each well and incubated for 4 h at 37° C. Plates are read in a SpectraMax Gemini (Molecular Devices, CA) with 544 nm excitation and 590 nm emission wavelength. IC50 values are determined by linear regression analysis of log drug concentration versus percent inhibition.
For the compound `Nc1nc(Nc2ccc(Oc3ccnc(CNS(=O)(=O)c4ccc(F)cc4)c3)cc2)cc(-c2ccccc2)n1` [Example 98, N-[(4-{4-[(2-amino-6-phenylpyrimidin-4-yl)amino]phenoxy}pyridin-2-yl)methyl]-4-fluorobenzenesulfonamide trifluoroacetate], the IC50 is at most 0.5 µM.

With `COC[C@@H]1CCCN1C(=O)c1cc(Oc2ccc(Nc3cc(-c4ccccc4)nc(N)n3)cc2)ccn1` [Example 81, N4*-{4-[(2-{[(2S)-2-(methoxymethylpyrrolidin-1-yl]carbonyl}pyridin-4-yl)oxy]phenyl}-6-phenylpyrimidine-2,4-diamine trifluoroacetate], the half-maximal inhibitory concentration (IC50) was above 2 µM.

`Nc1nc(Nc2ccc(Oc3ccnc(NCc4ccccc4)c3)cc2)cc(-c2ccccc2)n1` [Example 132, N4*-(4-{[2-(benzylamino)pyridin-4-yl]oxy}phenyl)-6-phenyl-pyrimidine-2,4-diamine trifluoroacetate]: the IC50 lay in the range of 0.5 to 2 µM.

As for `NCc1cc(Oc2ccc(Nc3cc(-c4ccccc4)nc(N)n3)cc2)ccn1` [Example 39, N^4-(4-{[2-(aminomethyl)pyridin-4-yl]oxy}phenyl)-6-phenylpyrimidine-2,4-diamine], the IC50 is at most 0.5 µM.

With `Nc1nc(Nc2ccc(Oc3ccnc(CNS(=O)(=O)c4ccccc4)c3)cc2)cc(-c2ccccc2)n1` [Example 96, N-[(4-{4-[(2-amino-6-phenylpyrimidin-4-yl)amino]phenoxy}pyridin-2-yl)methyl]benzenesulfonamide trifluoroacetate], the IC50 was at most 0.5 µM.

As to `Cn1cnc(S(=O)(=O)NCc2cc(Oc3ccc(Nc4cc(-c5ccccc5)nc(N)n4)cc3)ccn2)c1` [Example 93, N-[(4-{4-[(2-amino-6-phenylpyrimidin-4-yl)amino]phenoxy}pyridin-2-yl)methyl]-1-methyl-1H-imidazole-4-sulfonamide trifluoroacetate], the IC50 is above 2 µM.

As to `Nc1nc(Nc2ccc(Oc3ccnc(C(=O)N4CC[C@@H](O)C4)c3)cc2)cc(-c2ccccc2)n1` [Example 82, (3R)-1-[(4-{4-[(2-amino-6-phenylpyrimidin-4-yl)amino]phenoxy}pyridin-2-yl)carbonyl] pyrrolidin-3-ol trifluoroacetate (salt)], the IC50 was in the range of 0.5 to 2 µM.

On to `CC(C)S(=O)(=O)NCc1cc(Oc2ccc(Nc3cc(-c4ccccc4)nc(N)n3)cc2)ccn1` [Example 95, N-[(4-{4-[(2-amino-6-phenylpyrimidin-4-yl)amino]phenoxy}pyridin-2-yl)methyl]propane-2-sulfonamide trifluoroacetate], for which the 50% inhibitory concentration (IC50) is at most 0.5 µM.

For the compound `NCCCC(=O)Nc1ccc(-c2cc(Nc3ccc(Oc4ccnc(C(F)(F)F)c4)cc3)nc(N)n2)cc1` [Example 152, 4-amino-N-(4-{2-amino-6-[(4-{[2-(trifluoromethyl)pyridin-4-yl]oxy}phe-nyl)amino]pyrimidin-4-yl}phenyl)butanamide trifluoroacetate], the IC50 fell in the range of 0.5 to 2 µM.

`COc1cc(-c2cc(Nc3ccc(Oc4ccnc(C#N)c4)cc3)nc(N)n2)ccc1N` [Example 179, 4-(4-{[2-amino-6-(4-amino-3-methoxyphenyl)pyrimidin-4-yl]a-mino}phenoxy)pyridine-2-carbonitrile trifluoroacetate]: the concentration for half-maximal inhibition (IC50) was at most 0.5 µM.

In the case of `NCC(=O)Nc1ccc(-c2cc(Nc3ccc(Oc4ccnc(C(F)(F)F)c4)cc3)nc(N)n2)cc1` [Example 151, N-(4-{2-amino-6-[(4-{[2-(trifluoromethyl)pyridin-4-yl]oxy}phe-nyl)amino]pyrimidin-4-yl}phenyl)glycinamide trifluoroacetate], the half-maximal inhibitory concentration (IC50) is at most 0.5 µM.

`CCS(=O)(=O)NCc1cc(Oc2ccc(Nc3cc(-c4ccccc4)nc(N)n3)cc2)ccn1` [Example 94, N-[(4-{4-[(2-amino-6-phenylpyrimidin-4-yl)amino]phenoxy}pyridin-2-yl)methyl]ethanesulfonamide trifluoroacetate]: the half-inhibitory concentration (IC50) is at most 0.5 µM.

Take `COc1ccc(S(=O)(=O)NCc2cc(Oc3ccc(Nc4cc(-c5ccccc5)nc(N)n4)cc3)ccn2)cc1` [Example 97, N-[(4-{4-[(2-amino-6-phenylpyrimidin-4-yl)amino]phenoxy}pyridin-2-yl)methyl]-4-methoxybenzenesulfonamide trifluoroacetate]: the half-maximal inhibitory concentration (IC50) was at most 0.5 µM.

In the case of `NC(=O)NCc1cc(Oc2ccc(Nc3cc(-c4ccccc4)nc(N)n3)cc2)ccn1` [Example 101, N-[(4-{4-[(2-amino-6-phenylpyrimidin-4-yl)amino]phenoxy}pyridin-2-yl)methyl]urea trifluoroacetate], the IC50 was 0.5 to 2 µM.
